Measured values reported in US20100227856A1, “NOVEL COMPOUNDS” (SMITHKLINE BEECHAM CORPORATION, priority 2006, published 2010).

Target: T1, TRPV4 channel receptors (Bos taurus, UniProt A0A8F4X677)
T1 construct: obtained using this method in bovine articular chondrocytes; endogenous in cells; host or cells: bovine articular chondrocytes
Test: Ca2+ influx in bovine articular chondrocytes (Fura-2 fluorescence, FlexStation)
Assay type: cell-based
Text: Ca^2+ influx mediated through TRPV4 channel receptors can be measured using articular chondrocytes from such species as, but not limited to, human, rat, canine, rabbit, monkey, and bovine, using standard techniques in the art such as, but not limited to, Fura-2 (Invitrogen/Molecular Probes, Eugene, Oreg.) fluorescence using a FlexStation (manufactured by Molecular Devices, Sunnyvale, Calif.). Table 1 lists biological data for several representative compounds obtained using this method in bovine articular chondrocytes.

T1 sequence (A0A8F4X677 1-871): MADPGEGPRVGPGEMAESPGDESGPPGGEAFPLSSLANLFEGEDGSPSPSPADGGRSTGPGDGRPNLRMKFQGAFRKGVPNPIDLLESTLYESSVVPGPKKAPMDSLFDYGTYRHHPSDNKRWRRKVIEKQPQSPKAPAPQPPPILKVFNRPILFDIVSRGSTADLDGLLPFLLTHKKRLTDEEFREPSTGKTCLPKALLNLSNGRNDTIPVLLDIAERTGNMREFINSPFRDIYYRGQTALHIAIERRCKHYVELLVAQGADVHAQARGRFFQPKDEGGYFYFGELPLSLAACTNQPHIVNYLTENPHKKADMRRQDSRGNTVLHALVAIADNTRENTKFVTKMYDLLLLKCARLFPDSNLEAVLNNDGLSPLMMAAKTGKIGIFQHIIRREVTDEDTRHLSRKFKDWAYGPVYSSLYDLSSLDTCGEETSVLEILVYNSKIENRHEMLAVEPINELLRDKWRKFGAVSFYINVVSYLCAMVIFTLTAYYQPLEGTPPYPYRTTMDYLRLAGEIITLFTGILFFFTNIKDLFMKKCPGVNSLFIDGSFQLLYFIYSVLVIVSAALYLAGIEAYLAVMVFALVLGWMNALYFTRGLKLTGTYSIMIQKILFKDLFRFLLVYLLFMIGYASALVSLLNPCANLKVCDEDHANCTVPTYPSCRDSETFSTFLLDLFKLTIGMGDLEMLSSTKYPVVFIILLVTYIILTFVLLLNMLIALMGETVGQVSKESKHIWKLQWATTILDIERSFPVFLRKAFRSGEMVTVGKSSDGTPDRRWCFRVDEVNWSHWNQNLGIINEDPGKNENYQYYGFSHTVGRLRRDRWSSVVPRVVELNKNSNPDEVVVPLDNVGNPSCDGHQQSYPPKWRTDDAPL

SMILES	EC50
CC(C)C[C@H](NC(=O)c1cc2ccccc2s1)C(=O)NCCC1CCCCN1S(=O)(=O)c1ccc(Cl)cc1Cl (stereo partly drawn) [Example 3, N-((1S)-1-{[(2-{1-[(2,4-Dichlorophenyl)sulfonyl]-2-piperidinyl}ethyl)amino]carbonyl}-3-methylbutyl)-1-benzothiophene-2-carboxamide]	10 to 100 nM
CC(C)C[C@H](NC(=O)c1cc2ccccc2s1)C(=O)NCC1CCCCN1S(=O)(=O)c1ccccc1C#N (stereo partly drawn) [Example 1, N-((1S)-1-{[({1-[(2-cyanophenyl)sulfonyl]-2-piperidinyl}methyl)amino]carbonyl}-3-methylbutyl)-1-benzothiophene-2-carboxamide]	110 to 2000 nM
